Reference: patent US20260327240A1, “1,4-CINEOLE DERIVATIVE AND INTERMEDIATE THEREOF, HERBICIDE CONTAINING SAID DERIVATIVE AS ACTIVE INGREDIENT, METHOD FOR USING HERBICIDE, AND METHOD FOR PREPARING AGROCHEMICAL COMPOSITION” (HOKKO CHEMICAL INDUSTRY CO., LTD., priority 2023, published 2026)

Assays:
Format in all cases: in vivo
Amaranthus viridis = test: Test Example 3: herbicidal effect test by soil application in upland field; settings: Amaranthus viridis, 1 day after sowing, 120 g per 10 ares, 14 days after application, read-out: weed inhibition rate
Procedure, shortened: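 Twenty seeds per weed species were mixed into the top 1 cm of alluvial loam in pots. One day after sowing, an emulsifiable concentrate diluted in water was sprayed on the soil surface at 120 g active ingredient per 10 ares.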

Digitaria ciliaris [1] = test: Test Example 4: herbicidal effect test by stem and leaf treatment in upland field; settings: Digitaria ciliaris, 7 days after sowing, 120 g per 10 ares, 14 days after application, read-out: weed inhibition rate
Procedure, shortened: (§1)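 Weeds sown in alluvial loam and sprayed 7 days after sowing with a water-diluted emulsifiable concentrate at 100 L per 10 ares, equivalent to 120 g active ingredient per 10 ares.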

Echinochloa crus-galli [2] = test: as above; settings: Echinochloa crus-galli, 7 days after sowing, 120 g per 10 ares, 14 days after application, read-out: weed inhibition rate
Procedure, shortened: as §1

Digitaria ciliaris [3] = test: Test Example 7: herbicidal effect test by soil application in upland field; settings: Digitaria ciliaris, 1 day after sowing, 7.5 g per 10 ares, 14 days after application, read-out: weed inhibition rate
Method: (§2) Herbicidal Effect Test by Soil Application in Upland Field
(§3) Pots with an area of 36 cm^2 were filled with upland soil (alluvial loam), twenty seeds each of weeds of Digitaria ciliaris, Echinochloa crus-galli, Chenopodium album, and Amaranthus viridis were uniformly mixed with the top 1 cm layer of soil and the surface was lightly pressed down. One day after sowing, an emulsifiable concentrate prepared according to Formulation Example 5 using the compound shown below was diluted with water, and the diluted solution was sprayed onto the soil surface at a rate of 100 liters per 10 ares. The amount of the active ingredient to be applied was equivalent to 7.5 g per 10 ares. Fourteen days after chemical application, the herbicidal effect was evaluated according to the same criteria as in Test Example 1.

Echinochloa crus-galli [4] = test: as above; settings: Echinochloa crus-galli, 1 day after sowing, 7.5 g per 10 ares, 14 days after application, read-out: weed inhibition rate
Method: as §2, §3

CCOC(C)O[C@H]1C[C@]2(C)O[C@@]1(C(C)C)C[C@H]2OCc1ccccc1F (stereo partly drawn) [1-213, (1R,2S,4S,5R)-2-(1-ethoxyethoxy)-5-((2-fluorobenzyl)oxy)-1-isopropyl-4-methyl-7-oxabicyclo[2.2.1]heptane]
≥ 80%: inhibition at 1200 g/ha (Amaranthus viridis) | inhibition at 1200 g/ha (Digitaria ciliaris [1]) | inhibition at 1200 g/ha (Echinochloa crus-galli [2]) | inhibition at 75 g/ha (Digitaria ciliaris [3]) | inhibition at 75 g/ha (Echinochloa crus-galli [4])
